Laboratory results reported in patent publication US3962256A, “2-Aminomethyl benzimidazole derivatives” (Delalande S.A., priority 1973, dated 1976).
Counter-ions that a name gives are not always drawn.

Legend:
[1] = tested on: isolated heart of a guinea-pig; assay: Vasodilatatory: coronary flow of isolated heart; settings: 1 μg/ml in perfusion liquid
Description: The compounds of formula (I) are capable of augmenting the flow of the coronary vessels of the isolated heart of a guinea-pig when said compounds are added in the perfusion liquid of said organ.
By way of example, there can be found in the following Table X, the percentage augmentation of the flow of the isolated heart of a guinea-pig by adding different compounds of formula (I) to the perfusion liquid, in a concentration of 1 μg/ml.

[2] = Lethal doses / percentage mortality, oral; assay type: in vivo; settings: for mortality: in vivo, po
Excerpt: As a result of a comparison between the pharmacologically active doses mentioned above and the lethal doses listed in the following Table XII, the difference between said doses is sufficiently great to permit the utilisation of the compounds of formula (I) in therapeutics.

[3] = tested on: oedema caused by the sub-plantar injection of carraghenin; assay: Antiinflammatory: reduction of sub-plantar oedema caused by carraghenin, rat; assay type: in vivo; settings: 100 mg/Kg/p.o.
Description: These properties are shown by a diminution of the local oedema caused by the sub-plantar injection of a phlogogenic agent, such as carraghenin, in the rat following the oral administration of compounds of formula (I).
The following Table VI lists, by way of example, the percentage reduction of the oedems caused by the sub-plantar injection of carraghenin, resulting from the administration of 100 mg/Kg/p.o. of different compounds of formula (I).

[4] = tested on: rat suffering from high blood pressure; assay: Antihypertensive: return of systolic arterial pressure to normal in rats with high blood pressure; assay type: in vivo
Excerpt: The compounds of formula (I), administered by oral means to a rat suffering from high blood pressure, are capable of lowering the systolic arteriel pressure.
By way of example, there is provided in the following Table IV the results obtained by administration of different compounds of formula (I).

[5] = tested on: gastric ulcers, provoked in a rat by tying of the pylorus (Shay ulcers); assay: Antiulcerous: reduction of Shay ulcers (tying of the pylorus); assay type: in vivo; settings: 50 mg/Kg/i.d.
Description: The compounds of formula (I) administered by intraduodenal means reduce the extent of gastric ulcers, provoked in a rat by tying of the pylorus (Shay ulcers).
By way of example, there is listed in the following Table IX, the results obtained by the administrations of 50 mg/Kg/i.d. of different compounds of formula (I).

[6] = tested on: bronchoconstriction provoked in the guinea-pig by acetylcholine; assay: Antibronchoconstrictive and anticholinergic: bronchoconstriction by intravenous acetylcholine, Konzett method; assay type: in vivo
Excerpt: Injected by intraveinous or intraduodenal means, the compounds of formula (I) are capable of opposing the bronchoconstriction provoked in the guinea-pig by the itraveinous injection of acetylcholine by the Konzett method.
By way of example, the following Table VII lists the results obtained by the administration of different compounds of formula (I)

[7] = tested on: painful stretchings caused by the intraperitoneal injection of acetic acid; assay: Analgesic: reduction of painful stretchings caused by intraperitoneal acetic acid, oral, mouse; assay type: in vivo; settings: 100 mg/Kg/p.o.
Description: The compounds of formula (I), administered by oral means to the mouse, are capable of reducing the number of painful stretchings caused by the intraperitoneal injection of acetic acid.
By way of example, the following Table III lists the results obtained by administration of 100 mg/Kg/p.o. of different compounds of formula (I).

[8] = tested on: explorations in the escape enclosure; assay: Sedative: reduction of number of explorations in the escape enclosure; assay type: in vivo; settings: 100 mg/Kg/p.o., mouse
Description: The compounds of formula (I), administered by oral means to the mouse, reduce the number of explorations in the escape enclosure.
By way of example, the following Table VIII lists the results obtained by the administration of 100 mg/Kg/p.o. of different compounds of formula (I).

[9] = tested on: isolated duodenum of the rat; assay: Spasmolytic: opposing barium chloride contraction of isolated duodenum; settings: papaverine as standard
Description: The compounds of formula (I), introduced in the conserving medium are capable of opposing the contractural action of barium chloride on the isolated duodenum of the rat. This activity is evaluated by taking papaverine as standard.

[10] = tested on: ventricular fibrillations provoked by the inhalation of chloroform; assay: Antiarythmic: protection against ventricular fibrillations provoked by inhalation of chloroform; assay type: in vivo; settings: i.p., mouse
Excerpt: Administered by intraperitoneal means, the compounds of formula (I) are capable of protecting the mouse against the ventricular fibrillations provoked by the inhalation of chloroform.

[11] = tested on: gastric secretion measured after Shay ligature; assay: Gastric antisecretory: reduction of gastric secretion after Shay ligature, rat; assay type: in vivo; settings: 50 mg/Kg/i.d.
Description: Administered by intraduodenal means to a rat, the compounds of formula (I) are capable of reducing the gastric secretion measured after Shay ligature.
By way of example, the following Table V gives the results obtained by administration of 50 mg/Kg/i.d. of different compounds of formula (I).

Cc1ccc(C(=O)CCn2c(CN3CCOCC3)nc3ccccc32)cc1 [72 478]
Percentage augmentations of flow of isolated heart of a guinea-pig [1]: 50% | Percentage mortality ([2]; 2 000 mg/Kg/p.o., 2000 mg/kg): 0%

O=C(CCn1c(CN2CCOCC2)nc2ccccc21)c1ccc(F)cc1.O=C(O)/C=C\C(=O)O [72 526]
Percentage reduction of sub-plantar oedema [3]: 55% | Percentage of rats with high blood pressure whose systolic arteriel pressure is returned to normal ([4]; 100 mg/Kg/p.o.): 75% | Percentage reduction of Shay ulcers [5]: 40% | Percentage inhibition of bronchoconstriction ([6]; 100 mg/kg/i.d.): 75%

CN(C)Cc1nc2ccccc2n1CCC(=O)c1ccc(F)cc1.O=C(O)/C=C\C(=O)O [72 663]
Percentage reduction of number of painful stretchings [7]: 60% | Percentage reduction of number of explorations in the escape enclosure [8]: 30%

O=C(CCn1c(CN2CCOCC2)nc2ccccc21)c1ccc(Cl)cc1 [72 359]
Percentage reduction of Shay ulcers [5]: 35% | Percentage mortality ([2]; 2 000 mg/Kg/p.o., 2000 mg/kg): 0%

COc1cc(C(=O)CCn2c(CN3CCOCC3)nc3ccccc32)cc(OC)c1OC.O=C(O)/C=C\C(=O)O [72 525]
Percentage of rats with high blood pressure whose systolic arteriel pressure is returned to normal ([4]; 200 mg/Kg/p.o.): 50% | Percentage inhibition of bronchoconstriction ([6]; 100 mg/kg/i.d.): 80%

CCN(CC)Cc1nc2ccccc2n1CCC(=O)c1ccccc1 [72 573, 1-(2'-benzoylethyl maleate)-2-diethylaminomethyl benzimidazole]
spasmolytic activity relative to papaverine [9]: equivalent spasmolytic actvity to that of papaverine | Percentage inhibition of bronchoconstriction ([6]; 5 mg/kg/i.v.): 100% | mortality ([2]; 1 250 mg/Kg/p.o.): ~50%

Cc1ccc(C(=O)CCn2c(CN3CCCCC3)nc3ccccc32)c(C)c1 [72 540]
Percentage reduction of number of explorations in the escape enclosure [8]: 30% | Percentage inhibition of bronchoconstriction ([6]; 100 mg/kg/i.d.): 50% | Percentage mortality ([2]; 2 000 mg/Kg/p.o., 2000 mg/kg): 0%

O=C(CCn1c(CN2CCCCCC2)nc2ccccc21)c1ccc(F)cc1 [72 488]
Percentage reduction of sub-plantar oedema [3]: 50% | Percentage reduction of Shay ulcers [5]: 25% | Percentage mortality ([2]; 2 000 mg/Kg/p.o., 2000 mg/kg): 0% | DE 50 [10]: 200 mg/Kg/i.p.

CCCCOc1ccc(C(=O)CCn2c(CN(CC)CC)nc3ccccc32)cc1 [72 727]
Percentage inhibition of bronchoconstriction ([6]; 100 mg/kg/i.d.): 100%

CCN(CC)Cc1nc2ccccc2n1CCC(=O)c1ccc(F)cc1.O=C(O)/C=C\C(=O)O [72 568]
Percentage of rats with high blood pressure whose systolic arteriel pressure is returned to normal ([4]; 200 mg/Kg/p.o.): 50% | DE 50 [10]: 200 mg/Kg/i.p.

Cc1ccc(C(=O)CCn2c(CN(C)C)nc3ccccc32)c(C)c1 [72 712]
Percentage reduction of sub-plantar oedema [3]: 70% | Percentage reduction of Shay ulcers [5]: 55% | Percentage reduction of number of explorations in the escape enclosure [8]: 40% | Percentage mortality ([2]; 2 000 mg/Kg/p.o., 2000 mg/kg): 0%

CCCCOc1ccc(C(=O)CCn2c(CN3CCOCC3)nc3ccccc32)cc1 [72 523]
Percentage reduction of number of painful stretchings [7]: 45% | Percentage reductions in volume of gastric secretion [11]: 25% | Percentage mortality ([2]; 2 000 mg/Kg/p.o., 2000 mg/kg): 0%

O=C(CCn1c(CN2CCCCC2)nc2ccccc21)c1ccccc1 [72 491]
Percentage reduction of number of painful stretchings [7]: 65% | Percentage of rats with high blood pressure whose systolic arteriel pressure is returned to normal ([4]; 200 mg/Kg/p.o.): 50% | Percentage mortality ([2]; 2 000 mg/Kg/p.o., 2000 mg/kg): 0%

O=C(CCn1c(CN2CCOCC2)nc2ccccc21)c1ccccc1 [72 494]
Percentage reduction of sub-plantar oedema [3]: 40% | Percentage reductions in volume of gastric secretion [11]: 25% | mortality ([2]; 2000 mg/kg, 2 000 mg/Kg/p.o.): 0%

CCN(CC)Cc1nc2ccccc2n1CCC(=O)c1ccc(Cl)cc1 [72 390]
Percentage reduction of sub-plantar oedema [3]: 60% | Percentage reduction of Shay ulcers [5]: 40% | Percentage mortality ([2]; 2 000 mg/Kg/p.o., 2000 mg/kg): 0%
